Experimental data taken from ChEMBL document CHEMBL1140902 (J Med Chem, 2009).

Each molecule was assayed against T1, Progesterone receptor (Homo sapiens, UniProt P06401) (assay: Antagonist activity at progesterone receptor in human T47D cells assessed as inhibition of progesterone-induced alkaline phosphatase activity after 48 hrs).
T1 sequence (P06401 whole entry): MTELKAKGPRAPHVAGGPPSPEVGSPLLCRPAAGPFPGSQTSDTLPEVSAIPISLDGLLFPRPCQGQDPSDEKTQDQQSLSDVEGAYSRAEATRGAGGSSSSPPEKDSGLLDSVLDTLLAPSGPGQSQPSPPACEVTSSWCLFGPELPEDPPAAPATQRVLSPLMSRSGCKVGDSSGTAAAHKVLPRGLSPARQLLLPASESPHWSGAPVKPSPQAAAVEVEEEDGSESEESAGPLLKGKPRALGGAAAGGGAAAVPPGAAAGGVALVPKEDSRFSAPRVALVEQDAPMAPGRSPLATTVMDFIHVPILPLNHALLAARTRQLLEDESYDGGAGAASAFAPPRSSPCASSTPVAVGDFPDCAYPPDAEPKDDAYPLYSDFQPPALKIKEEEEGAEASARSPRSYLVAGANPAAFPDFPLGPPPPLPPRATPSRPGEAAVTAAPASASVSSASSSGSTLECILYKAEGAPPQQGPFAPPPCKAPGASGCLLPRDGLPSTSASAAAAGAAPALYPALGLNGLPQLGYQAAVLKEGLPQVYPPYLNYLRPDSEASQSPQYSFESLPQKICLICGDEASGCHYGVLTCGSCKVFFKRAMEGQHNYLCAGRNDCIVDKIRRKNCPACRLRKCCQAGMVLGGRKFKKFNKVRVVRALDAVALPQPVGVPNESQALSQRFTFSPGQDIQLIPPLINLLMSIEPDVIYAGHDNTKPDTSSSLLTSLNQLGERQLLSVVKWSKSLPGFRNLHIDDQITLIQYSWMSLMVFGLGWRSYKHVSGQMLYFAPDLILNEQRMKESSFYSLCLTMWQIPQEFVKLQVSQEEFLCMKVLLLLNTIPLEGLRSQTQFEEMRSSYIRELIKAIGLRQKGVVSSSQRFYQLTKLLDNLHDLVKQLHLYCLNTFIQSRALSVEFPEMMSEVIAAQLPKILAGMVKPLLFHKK
Type: functional, cell-based

Row | Structure (SMILES) | IC50
1 | CC#C[C@]1(O)CC[C@H]2[C@@H]3CCC4=CC(=O)CCC4=C3[C@@H](c3ccc(N(C)CCCO)cc3)C[C@@]21C | 0.12 nM
2 | CC#C[C@]1(O)CC[C@H]2[C@@H]3CCC4=CC(=O)CCC4=C3[C@@H](c3ccc(O)cc3)C[C@@]21C | 1.3 nM
3 | CC#C[C@]1(O)CC[C@H]2[C@@H]3CCC4=CC(=O)CCC4=C3[C@@H](c3ccc(OCCCCCCCCCBr)cc3)C[C@@]21C | 1 nM
4 | CC#C[C@]1(O)CC[C@H]2[C@@H]3CCC4=CC(=O)CCC4=C3[C@@H](c3ccc(N(C)CCCCCC(=O)NCCCC)cc3)C[C@@]21C | 0.9 nM
5 | CC#C[C@]1(O)CC[C@H]2[C@@H]3CCC4=CC(=O)CCC4=C3[C@@H](c3ccc(N(C)CCCCCCCC(=O)O)cc3)C[C@@]21C | 0.27 nM
6 | CC#C[C@]1(O)CC[C@H]2[C@@H]3CCC4=CC(=O)CCC4=C3[C@@H](c3ccc(N(C)CCCCCCCCC)cc3)C[C@@]21C | 1.4 nM
7 | CC#C[C@]1(O)CC[C@H]2[C@@H]3CCC4=CC(=O)CCC4=C3[C@@H](c3ccc(N(C)C(=S)NCCCC)cc3)C[C@@]21C | 0.73 nM
8 | CC#C[C@]1(O)CC[C@H]2[C@@H]3CCC4=CC(=O)CCC4=C3[C@@H](c3ccc(N(C)C(=O)NCCCCCC(=O)N[C@@H](CC(C)C)C(=O)OC(C)(C)C)cc3)C[C@@]21C | 1.7 nM
9 | CC#C[C@]1(O)CC[C@H]2[C@@H]3CCC4=CC(=O)CCC4=C3[C@@H](c3ccc(N(C)CCCCCC4OCCO4)cc3)C[C@@]21C | 0.17 nM
10 | CC#C[C@]1(O)CC[C@H]2[C@@H]3CCC4=CC(=O)CCC4=C3[C@@H](c3ccc(N(C)CCCCCC(=O)OC)cc3)C[C@@]21C | 0.4 nM
11 | CC#C[C@]1(O)CC[C@H]2[C@@H]3CCC4=CC(=O)CCC4=C3[C@@H](c3ccc(N(C)CCCOC(=O)CCC(=O)OC)cc3)C[C@@]21C | 1.2 nM
12 | CC#C[C@]1(O)CC[C@H]2[C@@H]3CCC4=CC(=O)CCC4=C3[C@@H](c3ccc(N(C)CCC(=O)OC)cc3)C[C@@]21C | 0.16 nM
13 | CC#C[C@]1(O)CC[C@H]2[C@@H]3CCC4=CC(=O)CCC4=C3[C@@H](c3ccc(N(C)C(=O)NCCCCCC(=O)OC)cc3)C[C@@]21C | 2.2 nM
14 | CC#C[C@]1(O)CC[C@H]2[C@@H]3CCC4=CC(=O)CCC4=C3[C@@H](c3ccc(N(C)C(=O)Nc4ccc(Cl)cc4)cc3)C[C@@]21C | 0.27 nM
15 | CC#C[C@]1(O)CC[C@H]2[C@@H]3CCC4=CC(=O)CCC4=C3[C@@H](c3ccc(N(C)CCCCCCCCCCC(=O)OC)cc3)C[C@@]21C | 0.63 nM
16 | CC#C[C@]1(O)CC[C@H]2[C@@H]3CCC4=CC(=O)CCC4=C3[C@@H](c3ccc(N(C)CCCCCCCCCCC(=O)O)cc3)C[C@@]21C | 0.46 nM
17 | CC#C[C@]1(O)CC[C@H]2[C@@H]3CCC4=CC(=O)CCC4=C3[C@@H](c3ccc(N(C)CCCOC(=O)CCC(=O)O)cc3)C[C@@]21C | 2.1 nM
18 | CC#C[C@]1(O)CC[C@H]2[C@@H]3CCC4=CC(=O)CCC4=C3[C@@H](c3ccc(N(C)C(=O)NCCCCCC(=O)O)cc3)C[C@@]21C | 72 nM
19 | CC#C[C@]1(O)CC[C@H]2[C@@H]3CCC4=CC(=O)CCC4=C3[C@@H](c3ccc(N(C)C(=O)CCCC(=O)O)cc3)C[C@@]21C | 100 nM
20 | CC#C[C@]1(O)CC[C@H]2[C@@H]3CCC4=CC(=O)CCC4=C3[C@@H](c3ccc(N(C)C(=O)NCCCC)cc3)C[C@@]21C | 0.79 nM

Row | Structure (SMILES) | IC50
21 | CC#C[C@]1(O)CC[C@H]2[C@@H]3CCC4=CC(=O)CCC4=C3[C@@H](c3ccc(N(C)C(=S)Nc4ccc(Cl)cc4)cc3)C[C@@]21C | 0.16 nM
22 | CC#C[C@]1(O)CC[C@H]2[C@@H]3CCC4=CC(=O)CCC4=C3[C@@H](c3ccc(N(C)CCC(=O)Nc4ccc(C(N)=O)c(O)c4)cc3)C[C@@]21C | 0.44 nM
23 | CC#C[C@]1(O)CC[C@H]2[C@@H]3CCC4=CC(=O)CCC4=C3[C@@H](c3ccc(N(C)CCCCCCOC(=O)CCC(=O)OC)cc3)C[C@@]21C | 0.17 nM
24 | CC#C[C@]1(O)CC[C@H]2[C@@H]3CCC4=CC(=O)CCC4=C3[C@@H](c3ccc(N(C)C(=O)CCCC(=O)OC)cc3)C[C@@]21C | 1.55 nM
25 | CC#C[C@]1(O)CC[C@H]2[C@@H]3CCC4=CC(=O)CCC4=C3[C@@H](c3ccc(N(C)CCCCCC(N)=O)cc3)C[C@@]21C | 0.55 nM
26 | CC#C[C@]1(O)CC[C@H]2[C@@H]3CCC4=CC(=O)CCC4=C3[C@@H](c3ccc(N(C)CCCCCC)cc3)C[C@@]21C | 0.66 nM
27 | CC#C[C@]1(O)CC[C@H]2[C@@H]3CCC4=CC(=O)CCC4=C3[C@@H](c3ccc(N(C)CCC)cc3)C[C@@]21C | 0.27 nM
28 | CC#C[C@]1(O)CC[C@H]2[C@@H]3CCC4=CC(=O)CCC4=C3[C@@H](c3ccc(N(C)CCCCCC=O)cc3)C[C@@]21C | 0.15 nM
29 | CC#C[C@]1(O)CC[C@H]2[C@@H]3CCC4=CC(=O)CCC4=C3[C@@H](c3ccc(N(C)CCCCCCO)cc3)C[C@@]21C | 0.06 nM
30 | CC#C[C@]1(O)CC[C@H]2[C@@H]3CCC4=CC(=O)CCC4=C3[C@@H](c3ccc(N(C)C(=O)CCCCC)cc3)C[C@@]21C | 0.69 nM
31 | CC#C[C@]1(O)CC[C@H]2[C@@H]3CCC4=CC(=O)CCC4=C3[C@@H](c3ccc(NC)cc3)C[C@@]21C [DESMETHYLMIFEPRISTONE] | 0.17 nM
32 | CC#C[C@]1(O)CC[C@H]2[C@@H]3CCC4=CC(=O)CCC4=C3[C@@H](c3ccc(N(C)CCCCCC(=O)O)cc3)C[C@@]21C | 0.44 nM
33 | CC#C[C@]1(O)CC[C@H]2[C@@H]3CCC4=CC(=O)CCC4=C3[C@@H](c3ccc(N(C)CCCOCc4ccc(C(N)=O)c(O)c4)cc3)C[C@@]21C | 0.46 nM
34 | CC#C[C@]1(O)CC[C@H]2[C@@H]3CCC4=CC(=O)CCC4=C3[C@@H](c3ccc(N(C)CCCCCCCC(=O)OC)cc3)C[C@@]21C | 0.47 nM
35 | CC#C[C@]1(O)CC[C@H]2[C@@H]3CCC4=CC(=O)CCC4=C3[C@@H](c3ccc(N(C)C(=O)CCCCC(=O)O)cc3)C[C@@]21C | 78 nM
36 | CC#C[C@]1(O)CC[C@H]2[C@@H]3CCC4=CC(=O)CCC4=C3[C@@H](c3ccc(N(C)CCCCCCOC(=O)CCC(=O)O)cc3)C[C@@]21C | 0.25 nM
37 | CC#C[C@]1(O)CC[C@H]2[C@@H]3CCC4=CC(=O)CCC4=C3[C@@H](c3ccc(N(C)C(=O)CCCCC(=O)OC)cc3)C[C@@]21C | 1.8 nM
38 | CC#C[C@]1(O)CC[C@H]2[C@@H]3CCC4=CC(=O)CCC4=C3[C@@H](c3ccc(OC)cc3)C[C@@]21C | 0.095 nM
39 | CC#C[C@]1(O)CC[C@H]2[C@@H]3CCC4=CC(=O)CCC4=C3[C@@H](c3ccc(N(C)CCC(=O)O)cc3)C[C@@]21C | 34 nM
40 | CC#C[C@]1(O)CC[C@H]2[C@@H]3CCC4=CC(=O)CCC4=C3[C@@H](c3ccc(N(C)C(=O)NCCCCCC(=O)N[C@@H](CC(C)C)C(=O)O)cc3)C[C@@]21C | 72 nM

The molecules below were run against T1, Progesterone receptor (assay: Antagonist activity at progesterone receptor in human T47D-C124 cells transfected with luciferase gene linked to MMTV promoter assessed as inhibition of progesterone-induced luciferase transactivation activity after 24 hrs).
Type: functional, cell-based

Row | Structure (SMILES) | IC50
41 | CC#C[C@]1(O)CC[C@H]2[C@@H]3CCC4=CC(=O)CCC4=C3[C@@H](c3ccc(N(C)CCCO)cc3)C[C@@]21C | 0.105 nM
42 | CC#C[C@]1(O)CC[C@H]2[C@@H]3CCC4=CC(=O)CCC4=C3[C@@H](c3ccc(N(C)CCCCCCCCC)cc3)C[C@@]21C | 0.38 nM
43 | CC#C[C@]1(O)CC[C@H]2[C@@H]3CCC4=CC(=O)CCC4=C3[C@@H](c3ccc(N(C)CCCCCC4OCCO4)cc3)C[C@@]21C | 0.073 nM
44 | CC#C[C@]1(O)CC[C@H]2[C@@H]3CCC4=CC(=O)CCC4=C3[C@@H](c3ccc(N(C)CCCCCC)cc3)C[C@@]21C | 0.18 nM
45 | CC#C[C@]1(O)CC[C@H]2[C@@H]3CCC4=CC(=O)CCC4=C3[C@@H](c3ccc(N(C)CCC)cc3)C[C@@]21C | 0.025 nM
46 | CC#C[C@]1(O)CC[C@H]2[C@@H]3CCC4=CC(=O)CCC4=C3[C@@H](c3ccc(N(C)CCCCCCO)cc3)C[C@@]21C | 0.071 nM
47 | CC#C[C@]1(O)CC[C@H]2[C@@H]3CCC4=CC(=O)CCC4=C3[C@@H](c3ccc(NC)cc3)C[C@@]21C [DESMETHYLMIFEPRISTONE] | 0.073 nM
